Assays:
[1] = target: T1, 72 kDa gelatinase of human origin (Homo sapiens, UniProt P08253); test: Activity on gelatinase, synthetic substrate; assay type: biochemical; details: performed on synthetic substrate; read-out: C150 (nM) gelatinase 72 kDa**
T1 sequence (P08253 110-660): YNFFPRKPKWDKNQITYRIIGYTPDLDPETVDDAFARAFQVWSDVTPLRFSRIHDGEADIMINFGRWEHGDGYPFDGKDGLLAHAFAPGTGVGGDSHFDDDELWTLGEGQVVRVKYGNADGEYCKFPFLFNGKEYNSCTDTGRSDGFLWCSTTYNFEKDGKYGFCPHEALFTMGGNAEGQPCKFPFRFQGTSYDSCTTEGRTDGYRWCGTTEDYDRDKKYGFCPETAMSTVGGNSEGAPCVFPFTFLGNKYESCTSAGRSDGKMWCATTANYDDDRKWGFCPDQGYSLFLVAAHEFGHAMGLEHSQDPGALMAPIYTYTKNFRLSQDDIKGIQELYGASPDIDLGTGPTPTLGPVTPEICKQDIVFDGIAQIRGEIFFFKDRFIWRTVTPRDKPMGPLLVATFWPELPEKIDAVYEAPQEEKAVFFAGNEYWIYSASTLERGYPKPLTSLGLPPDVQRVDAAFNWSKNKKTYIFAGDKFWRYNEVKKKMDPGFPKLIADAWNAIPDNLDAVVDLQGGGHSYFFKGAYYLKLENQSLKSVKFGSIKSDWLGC
Experimental: The anti-gelatinase activity of the compounds according to the invention was determined on 72 kDa gelatinase of human origin, in accordance with the operating mode described by Knight, C. G., Willenbrock, F., Murphy, G. (FEBS Letters, 296 (3), 263-266, 1992).
The gelatinase was incubated at 37° C. for 10 minutes, and its activity was determined by the increase in fluorescence of the product of Mca-Pro-Leu breakdown of the Mca-Pro-Leu-Gly-Leu-Dpa-Ala-Arg-NH2 synthetic substrate.
The inhibiting concentration C150 for each compound was determined by measurement of the activity of the enzyme in the presence of the inhibitor at a concentration ranging between 10^−7 and 10^−12 M (the inhibitor is dissolved at a concentration of 10^−2 M in DMSO, then diluted successively by tenths in DMSO to 10^−4 M, then in the buffer: Tris, HCl 50 mM+0.05% Brij 35; CaCl2 10 mM; NaCl 0.15 M).

[2] = target: stromelysine of human origin (Homo sapiens, UniProt P08254); test: Activity on stromelysine; assay type: biochemical; details: radiomarked transferrin, 37° C., 16 hours; read-out: C150 (nM) stromelysine
Experimental: The stromelysine was incubated at 37° C. for 16 hours with radiomarked transferrin, and its activity was determined by the release of the soluble peptides produced by the enzymatic breakdown of the transferrin. The inhibiting concentration C150 for each compound was determined by measurement of the activity of the enzyme in the presence of the inhibitor at a concentration ranging between 10^−7 and 10^−12 M (the inhibitor is dissolved in the same manner as for collagenase).

[3] = tested on: femoral head cartilage of the rat implanted subcutaneously in mice; test: Inhibition of the breakdown of cartilage in vivo; details: 10 mg/kg i.p. twice a day, 21 days
Experimental: The activities of the compounds of example 1 and example 10 comparatively to the compound BB16 were determined in a model of breakdown of cartilage in accordance with the operating mode described by Bottomley, K. M. K., Griffith, S. R. J., Rising, T. G., Steward, A. (Brit. J. Pharmacol. 21, 287-289, 1988). Femoral head cartilage of the rat, wrapped in sterile cotton, is implanted subcutaneously on the backs of mice. After 21 days, the mice are euthanized, the cartilages recovered and weighed. The animals are treated each day, twice a day, with one 10-mg/kg dose i.p.

[4] = target: 92 kDa gelatinase of human origin (Homo sapiens, UniProt P14780); test: Activity on gelatinase, radiomarked gelatin; assay type: biochemical; details: test performed with radiomarked gelatin; read-out: C150 (nM) gelatinase 92 kDa*
In short: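 Inhibiting concentration (C150) derived from enzyme activity across inhibitor levels of 10^−7 to 10^−12 M. Read-out is soluble peptide released from radiolabelled gelatin by human 92 kDa gelatinase after 16 hours at 37° C.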

[5] = tested on: release of TNF from the peritoneal macrophages of mice stimulated by LPS; test: Inhibition of the production of TNF in vitro; assay type: cell-based; details: Peritoneal macrophage; mouse peritoneal macrophages, LPS 100 ng/ml; read-out: C150 (μM) TNF
[6] = target: T2, collagenase of the human monocytic stock U937 (Homo sapiens, UniProt P03956); test: Activity on collagenase; assay type: biochemical; details: radiomarked collagen, 27° C., 16 hours; read-out: C150 (nM) collagenase
T2 construct: the collagenase of the human monocytic stock U937; endogenous in cells; host or cells: U937 human monocytic cell line
T2 sequence (P03956 100-469): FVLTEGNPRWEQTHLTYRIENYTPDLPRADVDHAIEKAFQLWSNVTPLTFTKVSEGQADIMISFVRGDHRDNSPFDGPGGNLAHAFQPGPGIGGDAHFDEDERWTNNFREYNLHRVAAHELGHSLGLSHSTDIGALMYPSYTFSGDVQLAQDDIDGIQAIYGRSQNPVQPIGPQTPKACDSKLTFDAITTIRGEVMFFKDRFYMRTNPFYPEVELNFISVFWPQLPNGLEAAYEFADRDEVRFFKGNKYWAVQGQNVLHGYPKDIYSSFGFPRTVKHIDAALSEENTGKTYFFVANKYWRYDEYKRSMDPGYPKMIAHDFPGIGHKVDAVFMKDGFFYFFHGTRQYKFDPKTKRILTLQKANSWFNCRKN

[7] = tested on: female Balb/c mice (D-galactosamine + LPS shock); test: Inhibition of septic shock; assay type: in vivo; details: i.p. 30 minutes prior to induction of the shock; survival over 48 hours
Experimental: Septic shock is induced in female Balb/c mice in accordance with the procedure described by Mohler, K. M. et al. (Nature, 370, 218-220, 1994). Briefly, the shock is induced by i.p. injection of 20 mg of D-galactosamine and i.v. injection of 20 ng of LPS. The survival of the animals is evaluated for the following 48 hours.
The products to be tested are injected i.p. 30 minutes prior to induction of the shock. The compounds according to the invention protect from shock from 10 to 50 mg/kg. For instance, the compound of example 10 protects at 50 mg/kg.

metalloproteinase (MMP) [8] = details: Bioorg. Med. Chem. Letters (1996), 6, 1719-1724; cited from earlier work
metalloproteinase (MMP) [9] = details: J. Am. Chem. Soc. (1995), 117, 4671-4682; cited from earlier work

Chain of stromelysine of human origin (P08254 100-477): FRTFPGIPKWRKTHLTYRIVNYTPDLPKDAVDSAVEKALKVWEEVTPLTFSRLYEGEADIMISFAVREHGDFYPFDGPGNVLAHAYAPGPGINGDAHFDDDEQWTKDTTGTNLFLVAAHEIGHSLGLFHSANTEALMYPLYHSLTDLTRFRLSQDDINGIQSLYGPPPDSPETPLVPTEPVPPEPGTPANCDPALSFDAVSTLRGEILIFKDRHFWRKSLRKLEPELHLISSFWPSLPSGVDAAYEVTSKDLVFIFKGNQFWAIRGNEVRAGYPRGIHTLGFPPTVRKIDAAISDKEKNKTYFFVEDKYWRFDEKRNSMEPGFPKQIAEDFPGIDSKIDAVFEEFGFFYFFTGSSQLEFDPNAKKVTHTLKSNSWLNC
Chain of 92 kDa gelatinase of human origin (P14780 94-707): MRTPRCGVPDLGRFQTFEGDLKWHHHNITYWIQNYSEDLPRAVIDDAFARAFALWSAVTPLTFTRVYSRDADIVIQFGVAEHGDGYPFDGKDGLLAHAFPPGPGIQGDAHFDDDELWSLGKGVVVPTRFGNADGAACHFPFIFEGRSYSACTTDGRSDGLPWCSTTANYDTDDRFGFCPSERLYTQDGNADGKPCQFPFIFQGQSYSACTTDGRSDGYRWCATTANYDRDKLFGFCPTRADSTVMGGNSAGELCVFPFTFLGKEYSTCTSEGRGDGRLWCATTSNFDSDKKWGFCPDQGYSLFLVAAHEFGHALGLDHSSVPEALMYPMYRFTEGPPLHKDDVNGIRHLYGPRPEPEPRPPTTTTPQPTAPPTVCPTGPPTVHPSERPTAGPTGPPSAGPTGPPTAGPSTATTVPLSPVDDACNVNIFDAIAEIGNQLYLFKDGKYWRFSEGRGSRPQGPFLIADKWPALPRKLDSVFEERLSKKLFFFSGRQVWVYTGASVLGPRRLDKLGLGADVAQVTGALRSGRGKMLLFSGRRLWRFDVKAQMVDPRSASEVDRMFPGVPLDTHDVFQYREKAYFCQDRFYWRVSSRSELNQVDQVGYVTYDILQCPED

With CNC(=O)[C@H](Cc1ccc(OC)cc1)NC(=O)[C@](O)(CC(C)C)[C@H](C)C(=O)NO [Example 1] the IC50 [1] was 1 nM, the IC50 [2] was 15 nM and the “inhibition of weight loss of the cartilage” value [3] was 42%. The IC50 [4] was 1 nM, the IC50 [5] was 1 µM and the IC50 [6] was 5 nM.
For CNC(=O)[C@H](Cc1ccc(Cl)cc1)NC(=O)[C@](O)(CC(C)C)[C@H](C)C(=O)NO [Example 10, N-2(S) [-1(S) (hydroxycarbamoyl)-1 ethyl]-2(S) hydroxy-4-methyl pentanoyl L4-chlorophenylalanine N-methylamide], the IC50 [1] was 1 nM, the “dose that protects from septic shock” value [7] was 50 mg/kg and the IC50 [2] was 48 nM. The “inhibition of weight loss of the cartilage” value [3] was 65%, the IC50 [4] was 2 nM and the IC50 [5] was 0.4 µM. It also gave an IC50 [6] of 4 nM.
With CNC(=O)[C@H](Cc1ccc(Cl)c(Cl)c1)NC(=O)[C@](O)(CC(C)C)[C@H](C)C(=O)NO [Example 18, N-2(S)[1(S)hydroxycarbamoyl-1 ethyl]-2 (S) hydroxy 4-methylpentanoyl L-3,4-dichlorophenylalanine N-methylamide] the IC50 [1] was 0.4 nM, the IC50 [2] was 6 nM and the IC50 [4] was 0.002 nM. The IC50 [5] was at most 0.14 µM, the IC50 [6] was 2 nM and the melting point was 216 °C (dec.).
For CNC(=O)[C@H](Cc1ccc(OC)cc1)NC(=O)C1(CC(=O)NO)CCc2ccccc21 (stereo partly shown) [IX], the “activity on gem disubstitution, versus compound VII” value (metalloproteinase (MMP) [8]) is given as “significant loss of activity”.
In the case of CNC(=O)[C@H](Cc1ccc(OC)cc1)NC(=O)C(C)(CC(=O)NO)c1ccccc1 (stereo partly shown) [VIII], the “activity on gem disubstitution, versus compound VII” value (metalloproteinase (MMP) [8]) is listed as “significant loss of activity”.
For CNC(=O)[C@H](Cc1c[nH]c2ccccc12)NC(=O)[C@@](C)(CC(=O)NO)CC(C)C [compound VI], the “loss of activity (factor) on substitution of the hydrogen with a methyl, compound V versus compound VI” value (metalloproteinase (MMP) [9]) is listed as 300.
